Here are results for one molecule from ChEMBL document CHEMBL3272273, “Synthesis and pharmacological activity and some derivatives of 1-phenyl-1,2,3,4-tetrahydro-5H-1,4-benzodiazepin-5-one” (J Med Chem, 1978).

Data set [1] can be described thus: Acute toxicity in ip dosed albino mouse measured within 24 hrs. As to conditions: in vivo. It counts as organism-based.
The test system of data set [2] is Mus musculus. The data set can be described thus: Neurotoxicity in albino mouse at 10 mg/kg, po up to 5 mins by rotorod test relative to control. It counts as toxicity, organism-based. On the set-up: dose 10 mg/kg, route oral. The settings on record: in vivo. On the technique in general: In the rotarod test animals must keep their balance on a rotating rod.
The subject of data set [3] is Ileum. As to the kind of experiment: Antihistamine activity in guinea pig ileum assessed as dose required to decrease 50 to 100% of histamine induced effect treated 5 mins before histamine addition. The format is functional, Cavia porcellus.
Data set [4] has as its system Ileum. As to the kind of experiment: Antiacetylcholine activity in guinea pig ileum assessed as dose required to decrease 50 to 100% of acetylcholine-induced effect treated 5 mins before acetylcholine addition. It counts as functional, Cavia porcellus.
Data set [5] in a line: Antinoradrenaline activity in isolated Wistar rat caudal artery assessed as dose required to decrease 20 to 50% of noradrenaline-induced effect per 6 mL/min after 15 mins. It counts as functional.
A short description of data set [6]: Antitrypatamine activity in isolated Wistar rat caudal artery assessed as dose required to decrease 20 to 50% of […]-induced effect per 6 mL/min after 15 mins. It counts as functional.
In data set [7] the test system is Mus musculus. As to the kind of experiment: Toxicity in ip dosed mouse assessed as sedative action. The settings on record: in vivo. The format is organism-based.
Data set [8] deals with Mus musculus. The data set can be described thus: Toxicity in albino mouse assessed as translatory movements at 10 mg/kg, ip relative to control. The arrangement: dose 10 mg/kg, route intraperitoneal. The format is organism-based. As to conditions: in vivo.
Data set [9] relates to Mus musculus. The data set can be described thus: Anticonvulsant activity in ip dosed albino mouse assessed as dose causing total prevention of maximal electroshock-induced maximal extensor seizure. It counts as functional. On the technique in general: The maximal electroshock test induces tonic seizures with an electrical stimulus.

On to `CNC1=Nc2ccc(Cl)cc2C(c2ccccc2)=[N+]([O-])C1` [CHLORDIAZEPOXIDE], for which the LD50 (usually the dose expected to kill half of the subjects tested) at 24 h in data set [1] was 780 mg/kg. The Activity with Mus musculus [2] was -50%; in the data set with Ileum [3], 3 µg/mL; in the data set on Ileum [4], 3 µg/mL; in data set [5] it was 18 µg/min; in [6], 20 µg/min; in the data set with Mus musculus [7], “Non-toxic”. The Activity was -40% in the data set on Mus musculus [8] and 90 mg/kg with Mus musculus [9].
